Test results taken from publication PMC10120310 (Cell Insight, 2022).

Experiments:
[1] = system: oseltamivir-resistant strain (H1N1, H274Y); format: cell-based, H1N1 influenza virus (H274Y)
[2] = system: oseltamivir-resistant strain (H1N1, H274Y); format: cell-based, H1N1 influenza virus (H274Y); remark: listed apart in the source

SMILES: CCOC(=O)C1=C[C@@H](OC(CC)CC)[C@H](NC(C)=O)[C@@H](N)C1 [OSP, oseltamivir phosphate]
- viral NP protein level of the resistant strain [1]: no antiviral activity
- viral NP mRNA level of the resistant strain [2]: no antiviral activity
